# Values quoted from earlier work, collected in patent publication US20010007868A1, “COMPOSITIONS FOR INHIBITING INTESTINAL IRON ABSORPTION” (priority 1998, published 2001).
# Read-outs that look alike come from different tables or passages of the source.
# Tests used:
# [1] = humans
# [2] = rats
# [3] = system: intestinal absorption of iron (IAI)
# [4] = fertile women, 50 mg/day over a 10 week period
smiles,measurement,setting,value
O=C(O)CCCC[C@@H]1CCSS1 (racemic) [Lipoic acid],effect on insulin resistance,[1],improve insulin resistance
same,effect on insulin resistance,[2],improve insulin resistance
Cc1c(O)c(=O)ccn1C [Deferiprone],"reduction of atherogenesis, in-vivo results",,not statistically significant
O=C1O[C@H]([C@@H](O)CO)C(O)=C1O [ascorbic acid],effect on IAI,[3]; with phytate-containing meal,enhances IAI and offsets the inhibitory effect of phytate
O=C([O-])[O-].[Ca+2] [calcium carbonate],decrease of IAI,"[3]; doses of about 300 mg per meal, both heme and non-heme iron sources",50-60%
O=P([O-])([O-])O[C@H]1[C@H](OP(=O)([O-])O)[C@H](OP(=O)([O-])[O-])[C@H](OP(=O)([O-])O)[C@@H](OP(=O)([O-])[O-])[C@@H]1OP(=O)([O-])O.[Na+].[Na+].[Na+].[Na+].[Na+].[Na+].[Na+].[Na+].[Na+] [sodium phytate],reduction of IAI,[3]; dose between 50-300 mg consumed at the time of a meal,about 85%
[Zn] [zinc],reduction of serum ferritin levels,[4],about 20%
